In BindingDB's records for doi:10.1016/j.bioorg.2014.07.012 (Kurukshetra University, 2014):

Experiments:
Cathepsin B = Cathepsin B (Capra hircus, UniProt H9B8T9); assay: Enzymatic activity assay; details: pH 6; 37 °C
Description: (§1) Enzyme was equilibrated in 0.1 M phosphate buffer, pH 6.0 at 37 °C. All compounds were prepared in DMSO. Various concentrations of compounds were added in the reaction mixture separately. The reactions were incubated for 30 min and the activity was estimated by the usual enzyme assay at pH 6.0 using a-N-benzoyl-D,L-arginine-2-naphthylamide (BANA) as substrate.

Cathepsin H = target: T1, Cathepsin H (Capra hircus, UniProt A0A060INS8); assay: Enzymatic activity assay; details: pH 6; 37 °C
T1 sequence (A0A060INS8 whole entry): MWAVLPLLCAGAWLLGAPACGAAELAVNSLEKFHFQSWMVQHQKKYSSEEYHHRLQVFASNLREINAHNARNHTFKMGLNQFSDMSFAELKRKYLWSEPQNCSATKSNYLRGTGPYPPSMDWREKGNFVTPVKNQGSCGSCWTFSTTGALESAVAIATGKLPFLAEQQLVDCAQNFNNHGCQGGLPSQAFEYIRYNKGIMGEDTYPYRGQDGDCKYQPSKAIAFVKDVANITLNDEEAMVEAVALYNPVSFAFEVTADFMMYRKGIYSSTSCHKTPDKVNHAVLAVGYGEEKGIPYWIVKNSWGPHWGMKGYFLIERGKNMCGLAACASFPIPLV
Description: as §1

| Structure (SMILES) | Ki (Cathepsin B) | Ki (Cathepsin H) |
| --- | --- | --- |
| COc1ccc(C2CC(c3ccccc3)=NN2C(=O)c2ccccc2)cc1 (stereo not given) [N-benzoyl-5-(-4'-methoxyphenyl)-3-phenylpyrazoline (2g)] | 1280 nM | 4100 nM |
| O=C(c1ccccc1)N1N=C(c2ccccc2)CC1c1cccc(Cl)c1 (stereo not given) [N-benzoyl-5-(-3'-chlorophenyl)-3-phenylpyrazoline (2c)] | 677 nM | 1810 nM |
| O=C(c1ccccc1)N1N=C(c2ccccc2)CC1c1ccc(Cl)cc1 (stereo not given) [N-benzoyl-5-(-4'-chlorophenyl)-3-phenylpyrazoline (2d)] | 925 nM | 3010 nM |
| COc1ccccc1C1CC(c2ccccc2)=NN1C(=O)c1ccccc1 (stereo not given) [N-benzoyl-5-(-2'-methoxyphenyl)-3-phenylpyrazoline (2e)] | 4900 nM | 9650 nM |
| O=C(c1ccccc1)N1N=C(c2ccccc2)CC1c1cccc([N+](=O)[O-])c1 (stereo not given) [N-benzoyl-5-(-3'-nitrophenyl)-3-phenylpyrazoline (2i)] | 195 nM | 980 nM |
| COc1ccccc1C1CC(c2ccccc2)=NN1C=O (stereo not given) [N-formyl-5-(-2'-methoxyphenyl)-3-phenylpyrazoline (1e)] | 66.8 nM | 387 nM |
| O=CN1N=C(c2ccccc2)CC1c1ccc([N+](=O)[O-])cc1 (stereo not given) [N-formyl-5-(-4'-nitrophenyl)-3-phenylpyrazoline (1j)] | 11.3 nM | 58 nM |
| COc1cccc(C2CC(c3ccccc3)=NN2C=O)c1 (stereo not given) [N-formyl-5-(-3'-methoxyphenyl)-3-phenylpyrazoline (1f)] | 45.5 nM | 272 nM |
| O=CN1N=C(c2ccccc2)CC1c1cccc([N+](=O)[O-])c1 (stereo not given) [N-formyl-5-(-3'-nitrophenyl)-3-phenylpyrazoline (1i)] | 1.1 nM | 51.9 nM |
| COc1cccc(C2CC(c3ccccc3)=NN2C(=O)c2ccccc2)c1 (stereo not given) [N-benzoyl-5-(-3'-methoxyphenyl)-3-phenylpyrazoline (2f)] | 1590 nM | 5030 nM |
| COc1ccc(C2CC(c3ccccc3)=NN2C=O)cc1 (stereo not given) [N-formyl-5-(-4'-methoxyphenyl)-3-phenylpyrazoline (1g)] | 44.8 nM | 221 nM |
| O=C(c1ccccc1)N1N=C(c2ccccc2)CC1c1ccccc1 (stereo not given) [N-benzoyl-3,5-diphenylpyrazoline (2a)] | 1150 nM | 3200 nM |
| O=C(c1ccccc1)N1N=C(c2ccccc2)CC1c1ccccc1[N+](=O)[O-] (stereo not given) [N-benzoyl-5-(-2'-nitrophenyl)-3-phenylpyrazoline (2h)] | 572 nM | 1440 nM |
| O=CN1N=C(c2ccccc2)CC1c1ccccc1 (stereo not given) [N-formyl-3,5-diphenylpyrazoline (1a)] | 22.7 nM | 174 nM |
| O=CN1N=C(c2ccccc2)CC1c1ccccc1[N+](=O)[O-] (stereo not given) [N-formyl-5-(-2'-nitrophenyl)-3-phenylpyrazoline (1h)] | 14.1 nM | 96.3 nM |
| O=C(c1ccccc1)N1N=C(c2ccccc2)CC1c1ccc([N+](=O)[O-])cc1 (stereo not given) [N-benzoyl-5-(-4'-nitrophenyl)-3-phenylpyrazoline (2j)] | 287 nM | 1270 nM |
| O=CN1N=C(c2ccccc2)CC1c1ccc(Cl)cc1 (stereo not given) [N-formyl-5-(-4'-chlorophenyl)-3-phenylpyrazoline (1d)] | 21.1 nM | 137 nM |
| O=CN1N=C(c2ccccc2)CC1c1ccccc1Cl (stereo not given) [N-formyl-5-(-2'-chlorophenyl)-3-phenylpyrazoline (1b)] | 18 nM | 135 nM |
| O=CN1N=C(c2ccccc2)CC1c1cccc(Cl)c1 (stereo not given) [N-formyl-5-(-3'-chlorophenyl)-3-phenylpyrazoline (1c)] | 14.6 nM | 130 nM |
| O=C(c1ccccc1)N1N=C(c2ccccc2)CC1c1ccccc1Cl (stereo not given) [N-benzoyl-5-(-2'-chlorophenyl)-3-phenylpyrazoline (2b)] | 775 nM | 1890 nM |
